Measurements reported in patent publication US11478476B2 (CONTERA PHARMA APS, priority 2014, dated 2022).

Tests used:
[1] = cited from earlier work
[2] = molecular target: T1, human recombinant 5-HT1A receptors (Homo sapiens, UniProt P08908); details: cited from earlier work; for Ki: nM printed, table head has no unit
T1 sequence (P08908 1-422): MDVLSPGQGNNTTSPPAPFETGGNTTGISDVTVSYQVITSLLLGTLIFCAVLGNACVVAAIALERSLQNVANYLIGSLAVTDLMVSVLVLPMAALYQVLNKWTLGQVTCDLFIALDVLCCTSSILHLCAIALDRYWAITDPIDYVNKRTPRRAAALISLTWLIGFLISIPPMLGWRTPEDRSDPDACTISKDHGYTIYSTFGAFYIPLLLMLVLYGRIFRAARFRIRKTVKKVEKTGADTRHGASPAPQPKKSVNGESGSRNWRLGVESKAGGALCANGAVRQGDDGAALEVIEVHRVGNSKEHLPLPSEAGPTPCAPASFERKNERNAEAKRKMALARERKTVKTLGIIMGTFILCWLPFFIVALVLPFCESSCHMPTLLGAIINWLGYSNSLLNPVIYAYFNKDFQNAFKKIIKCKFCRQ

[3] = molecular target: T2, human recombinant dopamine D3 receptor (Homo sapiens, UniProt P35462); details: read-out: D3 affinity Ki ± SEM; cited from earlier work
T2 sequence (P35462 whole entry): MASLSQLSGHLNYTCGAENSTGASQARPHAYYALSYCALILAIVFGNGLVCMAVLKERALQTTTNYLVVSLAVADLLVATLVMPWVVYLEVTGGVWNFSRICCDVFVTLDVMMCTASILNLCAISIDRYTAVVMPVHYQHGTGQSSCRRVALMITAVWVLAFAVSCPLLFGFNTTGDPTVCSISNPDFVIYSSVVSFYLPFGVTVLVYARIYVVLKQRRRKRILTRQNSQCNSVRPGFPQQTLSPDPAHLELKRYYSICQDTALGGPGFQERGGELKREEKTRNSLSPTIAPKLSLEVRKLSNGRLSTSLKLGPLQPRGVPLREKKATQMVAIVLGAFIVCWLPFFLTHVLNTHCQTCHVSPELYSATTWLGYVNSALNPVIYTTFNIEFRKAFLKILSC

[4] = molecular target: T2, human recombinant dopamine D3 receptor; details: saturating concentrations of dopamine; read-out: D3 efficacy IC50 ± SEM; cited from earlier work
[5] = molecular target: T3, human recombinant dopamine D4 receptor (Homo sapiens, UniProt P21917); details: saturating concentrations of dopamine; read-out: D4 efficacy IC50 ± SEM; cited from earlier work
T3 sequence (P21917 1-419): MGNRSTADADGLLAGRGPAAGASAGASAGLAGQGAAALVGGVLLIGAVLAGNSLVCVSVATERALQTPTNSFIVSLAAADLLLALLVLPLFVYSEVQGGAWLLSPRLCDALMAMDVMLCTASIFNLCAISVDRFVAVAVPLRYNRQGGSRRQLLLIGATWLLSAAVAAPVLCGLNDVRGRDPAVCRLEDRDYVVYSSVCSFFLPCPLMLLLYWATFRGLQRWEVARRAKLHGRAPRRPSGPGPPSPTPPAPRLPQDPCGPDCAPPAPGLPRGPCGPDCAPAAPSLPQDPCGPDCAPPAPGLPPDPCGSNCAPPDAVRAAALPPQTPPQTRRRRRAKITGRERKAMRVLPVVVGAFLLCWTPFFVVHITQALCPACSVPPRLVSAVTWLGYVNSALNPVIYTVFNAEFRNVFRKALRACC

[6] = molecular target: T4, human recombinant dopamine D2 receptor (Homo sapiens, UniProt P14416); details: read-out: D2 affinity Ki ± SEM; cited from earlier work
T4 sequence (P14416 whole entry): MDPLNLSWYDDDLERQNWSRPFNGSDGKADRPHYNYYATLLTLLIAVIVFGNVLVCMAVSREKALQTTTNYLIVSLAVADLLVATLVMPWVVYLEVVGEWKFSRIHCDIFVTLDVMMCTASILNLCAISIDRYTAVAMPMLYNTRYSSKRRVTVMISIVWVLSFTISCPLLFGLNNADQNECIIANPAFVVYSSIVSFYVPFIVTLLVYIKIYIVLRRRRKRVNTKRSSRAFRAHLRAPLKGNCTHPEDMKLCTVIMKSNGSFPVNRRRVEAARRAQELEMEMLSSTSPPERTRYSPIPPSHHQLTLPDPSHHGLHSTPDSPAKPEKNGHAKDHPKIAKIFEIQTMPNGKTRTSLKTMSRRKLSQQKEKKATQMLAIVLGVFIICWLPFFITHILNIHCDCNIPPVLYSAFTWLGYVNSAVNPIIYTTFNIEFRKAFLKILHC

[7] = molecular target: T4, human recombinant dopamine D2 receptor; details: saturating concentrations of dopamine; read-out: D2 efficacy IC50 ± SEM; cited from earlier work
[8] = molecular target: T3, human recombinant dopamine D4 receptor; details: read-out: D4 affinity Ki ± SEM; cited from earlier work
D2 receptors = details: oral buspirone; cited from earlier work
dopamine D3 receptors = details: oral buspirone at therapeutically relevant doses; cited from earlier work
[9] = test system: Parkinson's disease patients; details: cited from earlier work
[10] = test system: L-DOPA induced dyskinesia (LID) model rats; experiment: L-DOPA induced AIMs in 6-OHDA lesioned LID model rats; format: in vivo, rat
Description: Animals: 80 experimentally-naïve, male, 9 weeks old Sprague-Dawley rats at body weight of 200 to 250 g arrive at the laboratory at least 1 week prior to behavioural testing. Rats were housed in groups of n=2/cage. Animals had ad libitum access to standard rodent chow and water. Animal housing and testing rooms were maintained under controlled environmental conditions and were within close proximity of each other. Animal housing rooms were on a 12-hour light-dark cycle with lights on at 6:00 AM and maintained at 70° F./21° C. (range: 68-72° F./20-22° C.) with a humidity range of 20-40%. Testing rooms were maintained at 68-72° F. with a humidity range of 20-40%. DA (dopamine)-denervating lesions were performed by unilateral injection of 6-OHDA in the ascending nigrostriatal pathway. Rats were anesthetized with pentobarbital sodium 40 mg/kg (i.p.) and positioned in a stereotactic frame. 6-OHDA was injected into the right ascending DA bundle at the following coordinates relative to bregma and dural surface: A (anterior-posterior), L (lateral), V (dorsoventral): A −1.8, L −2.0, V −8.6, tooth bar 0.0.
The neurotoxin injections were performed at a rate of 1 ul/min, and the injection cannula is left in place for an additional 2-3 min thereafter. Two weeks after surgery, contralateral full body turns were recorded over 30 min, following s.c. injection of 0.5 mg/kg of apomorphine sulfate. The animals were placed in plastic Perspex bowls (30 cm in diameter) and the rotational behavior (360° turns) is recorded by an automated rotometer for […] after the s.c. injection of 0.5 mg/kg of apomorphine sulfate. Apomorphine (0.5 mg/kg, s.c.) induced contralateral rotation in unilateral 6-OHDA lesioned rats. 73 rats with rotations ≥180/30 min, indicating >90% DA lesion in nigrostriatal pathway, were chosen as the PD model rats for chronic L-DOPA treatment.
Starting one day after the apomorphine-induced rotation test, 6-OHDA-lesioned rats were treated with daily L-DOPA (Sigma-Aldrich, Germany) (8 mg/kg plus benserazide 15 mg/kg, s.c.) for 21 days. Rats were placed individually in transparent plastic cages without bedding material and scored every 20 min following the injection of L-DOPA for the entire time course of dyskinesias (120 min). The AIMs were classified into four subtypes according to their topographic distributions such as Locomotive, Forelimb, Axial and Orolingual behaviors. The severity of each AIM subtype was assessed by using scores from 0 to 4 (1: occasional, i.e. present less than 50% of the time; 2: frequent, i.e. present more than 50% of the time; 3: continuous, but interrupted by strong sensory stimuli; 4: continuous, not interrupted by strong sensory stimuli). In this study, rats with an AIMs≥28 were considered highly dyskinetic, while rats with an AIMs<28 either low or none-dyskinetic.
After chronic L-DOPA treatment on PD rats for 21 days, 42 LID model rats (348 g˜501 g, 15 weeks old) were successfully created with the criteria of total AIM scores (Lo+Li+AX+OI)≥28 points.
AIMs ratings were performed by an investigator who was kept unaware of the pharmacological treatment administered to each rat (experimentally blinded). In order to quantify the severity of the AIMs, rats were observed individually in their standard cages every 20th minute at 20-180 min after an injection of I-DOPA. The AIM's were classified into four subtypes:
Each of the four subtypes are scored on a severity scale from 0 to 4, where 0=absent, 1=present during less than half of the observation time, 2=present for more than half of the observation time, 3=present all the time but suppressible by external stimuli, and 4=present all the time and not suppressible by external stimuli. Axial, limb and orolingual AIMs are found to be modulated in a similar way by all the tested substances.
Rats were tested for AIMs using the sum of locomotive (LO) oraxial (AX), limb (LI), and orolingual (OL) AIM scores per testing session for statistical analyses. […]

[11] = oral administration of buspirone, human volunteers; analyte = label (6-OH-Busp: total, both enantiomers); cited from earlier work
[12] = after administration of radiolabeled buspirone; cited from earlier work
PD model rats = experiment: Stepping test (adjusting steps) in PD model rats; format: in vivo, rat; details: 10 mg/kg, sc; PD model rats
Description: The stepping test (Schallert et al., 1992) was performed as described by Kirik et al., 2001 with little modifications. Briefly, the rat was held by the experimenter fixing its hindlimbs with one hand and the forelimb not to be monitored with the other, while the unrestrained forepaw was touching the table. The number of adjusting steps was counted, while the rat was moved sideways along the table surface (90 cm in 5 s), in the forehand and backhand direction, for both forelimbs, and the average of the steps in the two directions is considered.
30 male PD model rats were used for adjusting steps test with the following groups: • 1. Vehicle 1+Vehicle 2 (n=7) • 2. Vehicle 1+L-DOPA (10 mg/kg, sc) (n=7) • 3. 6-OH-Busp (3 mg/kg, sc)+Vehicle 2 (n=8) • 4. 6-OH-Busp (3 mg/kg, sc)+L-DOPA (10 mg/kg, sc)
The PD rats were handled for 3 consecutive days. Vehicle 1 or 6-OH-Busp will s.c. dosed 61 min before adjusting steps test. Vehicle 2 or L-DOPA/Benserazide dosed 60 min before adjusting steps test. On testing day, the rats were held by both hind limbs and the untested forepaw. The test forepaw was placed on a flat surface and dragged in the forehand direction for 90 cm distance over 5 s. The number of adjusting steps was counted for both paws in the backhand and forehand directions of movement. […] Data were analyzed and graphed by Graph Pad Prism 6.

c1cnc(N2CCNCC2)nc1 [1-PP, 1-(2-pyrimidinyl)-piperazine]
exposure (area under the concentration-time profile) of metabolite relative to parent compound ([1]; oral dosing of buspirone in rats): 49 fold
IC50 [2]: > 1000 nM

O=C1CC2(CCC(O)C2)CC(=O)N1CCCCN1CCN(c2ncccn2)CC1 (stereo not drawn) [3-OH-Busp]
IC50 [2]: 652 nM
Ki [2]: 326 nM

O=C1CC2(CCCC2)CC(=O)N1CCCCN1CCN(c2ncc(O)cn2)CC1 [5-OH-Busp]
Ki [3]: 261 ± 46 nM
IC50 [4]: 930 ± 460 nM
IC50 [5]: 1400 ± 820 nM
Ki [6]: 4010 ± 792 nM
IC50 [7]: 2600 ± 1300 nM
IC50 [2]: 928 nM
Ki [2]: 464 nM
Ki [8]: 107 ± 44.8 nM

O=C1CC2(CCCC2)CC(=O)N1CCCCN1CCN(c2ncccn2)CC1 [Buspirone, 8-[4-(4-pyrimidin-2-ylpiperazin-1-yl)butyl]-8-azaspiro[4.5]decane-7,9-dione, reference compound]
Ki [3]: 98 ± 16 nM
IC50 [4]: 440 ± 180 nM
in vivo blockade of D2 receptors (PET) (D2 receptors): did not cause blockade
in vivo blockade of dopamine D3 receptors (PET) (dopamine D3 receptors): blocks
disability ratings ([9]; 100 mg/day): significant worsening
dyskinesia ([9]; 100 mg/day): reduced
effects on Parkinson's disease or dyskinesia ([9]; 10-60 mg/day): did not have any effects
total AIMs of LID rats at time points ([10]; Example XII, 1 mg/kg s.c., 50, 70, 90, 110, 130, 150, 170 and 190 min, vs vehicle): significantly attenuated
AUC of total AIMs from 10 min to 190 min ([10]; Example XII, buspirone 1 mg/kg s.c., 6-OH-Busp 0.3, 1 and 3 mg/kg s.c., vs vehicle): decreased
AUC0-INF [11]: 3.93 ngxh/ml
Cmax [11]: 1.39 ng/mL
IC50 [5]: 350 ± 60 nM
plasma half-life ([1]; rats): 54 ± 24 min
unchanged buspirone as share of total radioactivity in human plasma [12]: less than 2%
Ki [8]: 29.2 ± 11.3 nM

CN1CC(=O)N=C1NC(=O)Nc1cccc(Cl)c1 [Fenobam, 1-(3-chlorophenyl)-3-(3-methyl-5-oxo-4H-imidazol-2-yl)urea, reference compound]
AIMs of LID rats at any time points ([10]; Example XIV, 30 mg/kg, s.c. as printed): did not have significant effects

N[C@@H](Cc1ccc(O)c(O)c1)C(=O)O [L-DOPA, 3,4-dihydroxyphenylalanine, reference compound]
number of adjusting steps (PD model rats): increased

CN(C)CCc1c[nH]c2ccc(C[C@H]3COC(=O)N3)cc12 [Zolmitriptan, (S)-4-({3-[2-(dimethylamino)ethyl]-1H-indol-5-yl}methyl)-1,3-oxazolidin-2-one, reference compound]
AIMs at any time points ([10]; Example XIII, 10 mg/kg s.c.): did not have any effects
